US20230173042A1, “METHODS OF TREATMENT WITH ASPARAGINASE” (JAZZ PHARMACEUTICALS IRELAND LTD., priority 2017, published 2023)
pIC50: −log10 of the molar value.

Tests used:
Type in all cases: cell-based
[1] = tested on: DLBCL; experiment: SynergyScreen of Pegcrisantaspase or Oncaspar with standard of care agents; conditions: agent combined with Pegcrisantaspase (FIG. 13A) or Oncaspar (FIG. 13B)
Text: (§1) The special volcano plot of FIG. 9 relates compound sensitivity (as measured by ^10logIC50) to the presence of cancer hotspot mutations. […] The hotspot mutations were derived from statistical analyses of the recurrence patterns of mutations and copy number alterations in patients through separate studies. Axes and statistical analyses are identical to the volcano plot of FIG. 8. The cutoff p-level for significance is 0.32. […] Effect20 For determination of the effect of the compound on the activity of other anti-cancer agents in SynergyScreen™ experiments, a low, fixed concentration is used, corresponding to the concentration at which cell growth is inhibited by 20%. This concentration is determined using the dose-response curves of the single compounds. The concentration is the value on the x-as, corresponding to 80% viability of untreated at the y-axis.
(§2) See the tables depicted in FIG. 13A-FIG. 13B. Grey shading indicates synergistic activity. Light grey shading indicates one experiment and dark grey indicates two experiments. […] Example 5: mPEG-r-crisantaspase conjugates (Pegcrisantaspases) was tested in combination with ABT-737 against HL-60 cell line.

[2] = tested on: DB; experiment: Combination (synergy) cell proliferation assay with pegcrisantaspase; conditions: anti-cancer agent in combination with pegcrisantaspase; DB (DLBCL)
Method: (§3) Plate preparation. The stocks of the mixtures and single agents were diluted in DMSO or 0.9% sodium chloride to generate a 7-points dose-response series. After further 31.6 times dilution in 20 mM sterile Hepes buffer pH 7.4 (reference compounds) or medium (pegcrisantaspase), 5 μl of pegcrisantaspase solution, and 5 μl of reference compound was added to 40 μl pre-plated cells in duplicate in a 384-well assay plate. The final DMSO concentration during incubation was 0.4% in all wells.
(§4) Cell proliferation assay. A cell assay stock was thawed and diluted in appropriate medium and dispensed in a 384-well plate, depending on the cell line used, at a concentration of 800-3200 cells per well in […]: i.e., DB: 800 cells per well; RL: 1000 cells per well; MV-4-11: 1600 cells per well; KG-1, HL-60 and HT 3200 cells per well. For each used cell line the cell density was optimized previously. The margins of the plate were filled with phosphate-buffered saline. Plated cells were incubated in a humidified atmosphere of 5% CO2 at 37° C. After 24 hours, 5 μl of pegcrisantaspase solution, and 5 μl of reference compound was added, and plates were further incubated for another 72 hours. After 72 hours, plates were cooled in 30 minutes to room temperature and 25 μl of ATPlite 1Step™ (PerkinElmer) solution was added to each well, and subsequently shaken for 2 minutes. After 5 minutes of incubation in the dark at room temperature, the luminescence was recorded on an Envision multimode reader (PerkinElmer).
(§5) Controls: t=0 signal. On a parallel plate, 40 μl cells were dispensed in quadruplicate and incubated in a humidified atmosphere of 5% CO2 at 37° C. After 24 hours, plates were cooled to room temperature in 30 minutes. 5 μl DMSO-containing Hepes buffer, 5 μl 0.9% sodium chloride-containing medium and 25 μl ATPlite 1Step™ solution were added and subsequently mixed for 2 minutes. Luminescence was measured after 10 minute incubation (=luminescencet=0) in the dark.
(§6) Cell growth control. The cellular doubling times of all cell lines are calculated from the t=0 hours and t=end growth signals of the untreated cells. If the doubling time is out of specification (0.5-2.0 times deviating from historic average) the assay is invalidated.
(§7) Maximum signals. On each 384-well plate, the maximum luminescence was recorded after incubation for 72 hours without compound in the presence of 0.4% DMSO. All equivalent wells (usually 14) were averaged. This average is defined as: luminescenceuntreated,t=72h. Dose response curves. Accurate single agent IC50s are needed for combination analysis. For each single agent its dose-response signal was fitted by a 4-parameter logistics curve using XL-fit 5 (IDBS software):
(§8) luminescence=bottom+(top-bottom)/(1+10^(logIC50−log[cpd])−hill))
(§9) [cpd] is the compound concentration tested. hill is the Hill-coefficient. Bottom and top are the asymptotic minimum and maximum of the curve. Combination Index (CI) determination. The CI is one of the most widely used quantitative indications of synergy. The CI evaluates the concentrations needed to achieve a fixed-effect. A CI of below 1 indicates synergy.
(§10) CI is defined for a certain percentage cell viability (V), which is the signal related to a non-exposed control: V=100%×luminescencetreated,t=72h/luminescenceuntreated,t=72h. The concentrations of the two compounds cpd1 and cpd2 needed to reach a certain percentage cell viability V in combination are then compared to the concentrations needed as single agents:
(§11) IC50,cpd1 would signify the IC50 of cpd1 alone. The CI is labelled by %-effect, to follow conventions, so CI75 signifies the CI at 25% viability Curve shift analysis. This analysis provides a visual confirmation of synergy^1. The concentrations of the mixtures of compounds 1 and 2 (cpd1 and cpd2), and the single agents, were expressed in terms of IC50 equivalents (in ‘units’ of IC50):
(§12) The dose-response signal was fitted by a 4-parameter logistics curve using XL-fit 5 (IDBS software)

[3] = tested on: HL-60 cell line; experiment: as above; conditions: for conclusion (synergy): anti-cancer agent in combination with pegcrisantaspase, HL-60 (AML)
Method: as §3, §4, §5, §6, §7, §8, §9, §10, §11, §12

[4] = tested on: HT; experiment: as above; conditions: anti-cancer agent in combination with pegcrisantaspase; HT (DLBCL)
Method: as §3, §4, §5, §6, §7, §8, §9, §10, §11, §12

[5] = tested on: KG-1; experiment: as above; conditions: anti-cancer agent in combination with pegcrisantaspase; KG-1 (AML)
Method: as §3, §4, §5, §6, §7, §8, §9, §10, §11, §12

[6] = tested on: RL; experiment: as above; conditions: anti-cancer agent in combination with pegcrisantaspase; RL (DLBCL)
Method: as §3, §4, §5, §6, §7, §8, §9, §10, §11, §12

[7] = tested on: AML; experiment: SynergyScreen of Pegcrisantaspase or Oncaspar with standard of care agents; conditions: agent combined with Pegcrisantaspase (FIG. 13A) or Oncaspar (FIG. 13B)
Text: as §1, §2

[8] = tested on: various cell lines; experiment: Pegcrisantaspase in combination with other compounds (Example 4, FIG. 2); conditions: compound in combination with Pegcrisantaspase

Compound	effect in DLBCL when used with Pegcrisantaspase or Oncaspar [1]	conclusion (synergy) [2]	conclusion (synergy) [3]	conclusion (synergy) [5]	conclusion (synergy) [6]	effect in AML when used with Pegcrisantaspase or Oncaspar [7]	also measured
CO[C@H]1C[C@@H]2CC[C@@H](C)[C@@](O)(O2)C(=O)C(=O)N2CCCC[C@H]2C(=O)O[C@H]([C@H](C)C[C@@H]2CC[C@@H](OCCO)[C@H](OC)C2)CC(=O)[C@H](C)/C=C(\C)[C@@H](O)[C@@H](OC)C(=O)[C@H](C)C[C@H](C)/C=C/C=C/C=C/1C [everolimus]	increased effect	–	–	–	–	–	–
CC1(C)CCC(CN2CCN(c3ccc(C(=O)NS(=O)(=O)c4ccc(NCC5CCOCC5)c([N+](=O)[O-])c4)c(Oc4cnc5[nH]ccc5c4)c3)CC2)=C(c2ccc(Cl)cc2)C1 [venetoclax]	–	synergy (CI < 1.0: synergy)	strong synergy (CI < 0.3: strong synergy)	strong synergy (CI < 0.3: strong synergy)	synergy (CI < 1.0: synergy)	–	conclusion (synergy) [4]: no synergy (CI = 1.0: no synergy)
CN(C)CC[C@H](CSc1ccccc1)Nc1ccc(S(=O)(=O)NC(=O)c2ccc(N3CCN(Cc4ccccc4-c4ccc(Cl)cc4)CC3)cc2)cc1[N+](=O)[O-] [ABT-737]	increased effect	synergy (CI < 1.0: synergy)	strong synergy (CI < 0.3: strong synergy)	strong synergy (CI < 0.3: strong synergy)	synergy (CI < 1.0: synergy)	increased effect	pIC50 ([3]; Homo sapiens, single agents, dose-response curves of FIG. 3, HL-60): 6.08; Emax ([3]; Homo sapiens, single agents, dose-response curves of FIG. 3, HL-60, read-out: maximal effect): 67%; pIC50 ([3]; Homo sapiens, therapeutic as single agent, HL-60, 72 hours): 5.92; conclusion (synergy) [4]: synergy (CI < 1.0: synergy); potentiation of the effect by Pegcrisantaspase [8]: synergy
Cn1c(=O)n(-c2ccc(C(C)(C)C#N)cc2)c2c3cc(-c4cnc5ccccc5c4)ccc3ncc21 [dactolisib]	increased effect	–	synergy (CI < 1.0: synergy)	strong synergy (CI < 0.3: strong synergy)	–	increased effect	–
COc1cccc2c1C(=O)c1c(O)c3c(c(O)c1C2=O)C[C@@](O)(C(C)=O)C[C@@H]3O[C@H]1C[C@H](N)[C@H](O)[C@H](C)O1 [daunorubicin]	–	–	–	–	–	increased effect	–
CC(C)C[C@H](NC(=O)[C@H](CCc1ccccc1)NC(=O)CN1CCOCC1)C(=O)N[C@@H](Cc1ccccc1)C(=O)N[C@@H](CC(C)C)C(=O)[C@@]1(C)CO1 [carfilzomib]	increased effect	synergy (CI < 1.0: synergy)	antagonism	synergy (CI < 1.0: synergy)	synergy (CI < 1.0: synergy)	increased effect	conclusion (synergy) [4]: no synergy/antagonism
O=C(Cc1cccc(OC(F)(F)F)c1)Nc1ccc(CCCCc2nnc(NC(=O)Cc3ccccn3)s2)nn1 [CB-839]	increased effect	–	–	–	–	–	–
C[C@]12C=CC(=O)C=C1CC[C@@H]1[C@@H]2[C@@H](O)C[C@@]2(C)[C@H]1CC[C@]2(O)C(=O)CO [prednisolone]	increased effect	no synergy (CI = 1.0: no synergy)	–	–	synergy (CI < 1.0: synergy)	–	–
CC[C@]1(O)C[C@H]2CN(CCc3c([nH]c4ccccc34)[C@@](C(=O)OC)(c3cc4c(cc3OC)N(C=O)[C@H]3[C@@](O)(C(=O)OC)[C@H](OC(C)=O)[C@]5(CC)C=CCN6CC[C@]43[C@@H]65)C2)C1 [vincristine]	increased effect	–	–	–	–	–	–
CC(C)C[C@H](NC(=O)[C@H](Cc1ccccc1)NC(=O)c1cnccn1)B(O)O [bortezomib]	increased effect	–	–	–	–	increased effect	–
Nc1ccn([C@@H]2O[C@H](CO)[C@@H](O)[C@@H]2O)c(=O)n1 [cytarabine]	–	–	–	–	–	increased effect	potentiation of the effect by Pegcrisantaspase [8]: synergy
